The supplement of paper PMC10307832

How the values were obtained:
Test in all cases: relative viability (nuclei count vs DMSO), 5 days (fraction); higher = more cells survive
[1] = compound: C1CC(C2=C(C1)C3=C(N2)C=CC(=C3)Cl)C(=O)N [Selisistat] + COc1cccc2cc(-c3nc([C@H]4CC[C@H](C(=O)O)CC4)n4ncnc(N)c34)[nH]c12 [OSI-027] (partner 0.5 µM)
In short: (§1)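 Each reported value is a median over duplicate plates. It expresses relative viability: treated-well nuclei count divided by vehicle-well nuclei count. Lung cancer cell lines in 1536-well plates were dosed by pin tool a day after seeding, alone with one drug or with a fixed anchor-drug dose plus five library-drug doses (not always all listed) in √10 steps, and nuclei were counted after 5 days.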

[2] = compound: C1CC(C2=C(C1)C3=C(N2)C=CC(=C3)Cl)C(=O)N [Selisistat] + Cc1cc(Nc2cc(N3CCN(C)CC3)nc(Sc3ccc(NC(=O)C4CC4)cc3)n2)n[nH]1 [Tozasertib] (partner 0.1 µM)
In short: as §1

[3] = compound: C1CC(C2=C(C1)C3=C(N2)C=CC(=C3)Cl)C(=O)N [Selisistat] + NC(=O)Nc1cc(-c2cccc(F)c2)sc1C(=O)N[C@H]1CCCNC1 [AZD7762] (partner 0.2 µM)
In short: as §1

[4] = compound: c1ccc2c(CCNc3ccc(Nc4ccncc4)cc3)c[nH]c2c1 [Serdemetan] + Cc1nc(NC(=O)N2CCC[C@H]2C(N)=O)sc1-c1ccnc(C(C)(C)C(F)(F)F)c1 [Alpelisib] (partner 2 µM)
In short: as §1

Cell Line	relative viability ([1]; first compound 0.4 µM)	relative viability ([1]; first compound 1.265 µM)	relative viability ([1]; first compound 4 µM)	relative viability ([1]; first compound 12.65 µM)	relative viability ([1]; first compound 40 µM)	relative viability ([2]; first compound 0.4 µM)	relative viability ([2]; first compound 1.265 µM)	relative viability ([2]; first compound 4 µM)	relative viability ([2]; first compound 12.65 µM)	relative viability ([2]; first compound 40 µM)	relative viability ([3]; first compound 0.4 µM)	relative viability ([3]; first compound 1.265 µM)	relative viability ([3]; first compound 4 µM)	relative viability ([3]; first compound 12.65 µM)	relative viability ([3]; first compound 40 µM)	relative viability ([4]; first compound 0.04 µM)	relative viability ([4]; first compound 0.1265 µM)	relative viability ([4]; first compound 0.4 µM)	relative viability ([4]; first compound 1.265 µM)	relative viability ([4]; first compound 4 µM)
NCI-H2342	0.654	0.589	0.493	0.577	0.628	0.504	0.502	0.504	0.502	0.57	0.494	0.483	0.41	0.611	0.505	–	–	–	–	–
SK-MES-1	0.638	0.668	0.657	0.437	0.646	0.977	0.869	0.954	0.829	0.948	–	–	–	–	–	0.836	0.792	0.74	0.834	0.526
HCC-366	1.01	0.837	0.605	0.889	0.898	0.0912	0.131	0.064	0.0918	0.0529	0.315	0.225	0.257	0.186	0.166	0.403	0.434	0.208	0.0495	0.0462
201T	0.797	0.705	0.555	0.587	0.739	0.945	0.95	0.873	0.919	0.935	0.644	0.623	0.7	0.602	0.659	0.965	0.995	1.01	0.939	0.883
HCC-827	0.763	0.766	0.705	0.746	0.768	0.418	0.429	0.444	0.389	0.392	0.206	0.154	0.187	0.279	0.24	0.924	0.934	–	0.723	0.6
NCI-H647	0.746	0.58	0.614	0.713	0.829	0.227	0.322	0.44	0.29	0.343	0.465	0.433	0.345	0.432	0.553	1.16	1.2	1.05	0.762	0.671
NCI-H2023	0.492	0.405	0.347	0.401	0.406	0.417	0.34	0.286	0.263	0.307	–	–	–	–	–	0.613	0.651	0.521	0.375	0.266
NCI-H520	0.311	0.216	0.257	0.248	0.206	0.387	0.472	0.488	0.415	0.451	–	–	–	–	–	0.729	0.807	1.09	0.726	0.786
RERF-LC-KJ	0.742	0.525	0.51	0.532	0.533	0.662	0.46	0.519	0.403	0.371	0.932	0.765	0.823	0.898	0.877	0.804	0.832	0.777	0.801	0.643
A-427	0.455	0.432	0.301	0.421	0.57	0.207	0.194	0.182	0.226	0.183	0.742	0.785	–	0.725	0.757	1.05	1.05	1.1	0.833	0.561
NCI-H441	0.658	0.532	0.481	0.544	0.754	0.688	0.607	0.65	0.597	0.59	1.19	1.06	1.29	0.969	1.32	0.85	0.678	0.803	0.524	0.513
NCI-H1703	–	–	–	–	–	–	–	–	–	–	0.116	0.114	–	0.139	0.136	0.389	0.345	0.306	0.277	0.374
NCI-H1792	0.745	0.68	–	0.644	0.689	–	–	–	–	–	0.654	0.577	–	0.512	0.713	0.697	0.686	0.567	0.529	0.257
Calu-6	–	–	–	–	–	–	–	–	–	–	–	–	–	–	–	0.934	1.01	0.929	0.788	0.674
SK-LU-1	0.431	0.366	0.334	0.359	0.416	0.365	0.329	0.302	0.32	0.314	–	–	–	–	–	1.14	1.07	0.944	0.758	0.669
PC-3 [JPC-3]	0.931	0.776	0.739	0.662	0.731	0.917	0.853	0.82	0.857	0.915	0.834	0.861	–	0.744	0.695	1.04	0.979	–	1.01	1.05
EMC-BAC-2	0.391	0.358	0.462	0.362	0.342	0.302	0.286	0.404	0.281	0.257	1.08	1.11	1.07	0.661	0.598	0.727	0.712	0.727	0.662	0.548
LK-2	0.196	0.179	0.174	0.179	0.255	0.155	0.189	0.197	0.176	0.18	0.434	0.265	0.323	0.296	0.434	1.1	1.28	1.25	1.06	0.652
NCI-H2126	0.781	0.639	0.609	0.62	0.768	0.852	0.819	0.825	0.841	0.867	1.04	1.04	0.992	1.03	1.03	0.721	0.753	0.741	0.575	0.762
